In PubChem BioAssay AID298 (DTP/NCI, 2004):
“And” between values parts separate entries of the source, which are not always exact repeats. Equal values may be shown once. Inconclusive results are not listed.

System: MX-1 breast xenograft, intrarenal, nude mice, tumor weight
Assay: NCI In Vivo Anticancer Drug Screen. Data for tumor model Human Mammary Carcinoma MX-1 Xenograft (intrarenal inoculation) in NU/NU BALB/C (nude) mice
Conditions: endpoint: mean tumor weight change, higher = larger tumour
How it was run: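 Efficacy in vivo: tumor measurement or survival of treated animals divided by that of vehicle-dosed controls.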

[1] = dose: 300.0 mg/kg/injection, schedule: Q04DX003 (ip), vehicle: saline with Tween-80
[2] = dose: 600.0 mg/kg/injection, schedule: Q04DX003 (ip), vehicle: saline with Tween-80

Question: `Cc1ccc(S(=O)(=O)NC(=O)C2C(=O)CC3(CCCCC3)CC2=O)cc1` was tested. Which T/C (dose: 300.0 mg/kg/injection, schedule: Q04DX003 (sc), vehicle: Klucel (hydroxypropylcellulose) (HPC)) did it give?
Answer: 81 % of control

Question: What about the T/C (dose: 600.0 mg/kg/injection, schedule: Q04DX003 (sc), vehicle: Klucel (hydroxypropylcellulose) (HPC)) of the same compound?
Answer: 95 % of control

Question: What about the T/C (dose: 1200.0 mg/kg/injection, schedule: Q04DX003 (sc), vehicle: Klucel (hydroxypropylcellulose) (HPC)) of the same compound?
Answer: 121 % of control

Question: And the T/C (dose: 2400.0 mg/kg/injection, schedule: Q04DX003 (sc), vehicle: Klucel (hydroxypropylcellulose) (HPC))?
Answer: 117 % of control

Question: How did the T/C (dose: 2.5 mg/kg/injection, schedule: Q04DX003 (ip), vehicle: Klucel (hydroxypropylcellulose) (HPC)) turn out when `COc1cc2c(c(OC)c1O)-c1ccc(OC)c(=O)cc1[C@@H](NC(=O)C(F)(F)F)CC2` was run?
Answer: 62 % of control

Question: What about the T/C (dose: 5.0 mg/kg/injection, schedule: Q04DX003 (ip), vehicle: Klucel (hydroxypropylcellulose) (HPC)) of the same compound?
Answer: 60 % of control

Question: And the T/C (dose: 10.0 mg/kg/injection, schedule: Q04DX003 (ip), vehicle: Klucel (hydroxypropylcellulose) (HPC))?
Answer: 35 % of control

Question: What about the T/C (dose: 20.0 mg/kg/injection, schedule: Q04DX003 (ip), vehicle: Klucel (hydroxypropylcellulose) (HPC)) of the same compound?
Answer: 34 % of control

Question: `CSCCC(N)C(=O)O` (centres undefined) was tested. Which T/C [1] did it give?
Answer: 101 % of control

Question: And the T/C [2]?
Answer: 85 % of control and 105 % of control

Question: And the T/C (dose: 1200.0 mg/kg/injection, schedule: Q04DX003 (ip), vehicle: saline with Tween-80)?
Answer: 102 % of control and 112 % of control

Question: What about the T/C (dose: 2400.0 mg/kg/injection, schedule: Q04DX003 (ip), vehicle: saline with Tween-80) of the same compound?
Answer: 91 % of control and 106 % of control

Question: Which results are given for `CCCCOCN(COCCCC)C12CC3CC(CC(C3)C1)C2`?
Answer: T/C (dose: 100.0 mg/kg/injection, schedule: Q04DX003 (sc), vehicle: saline with Tween-80): 48 % of control; T/C (dose: 200.0 mg/kg/injection, schedule: Q04DX003 (sc), vehicle: saline with Tween-80): 45 % of control; T/C (dose: 400.0 mg/kg/injection, schedule: Q04DX003 (sc), vehicle: saline with Tween-80): 76 % of control

Question: Which T/C (dose: 150.0 mg/kg/injection, schedule: Q04DX003 (ip), vehicle: saline with Tween-80) does the source give for `CC1C(c2ccccc2)OC(N2CCOCC2)C(C)(C)CN1C` (centres undefined) here?
Answer: 112 % of control

Question: And the T/C [1]?
Answer: 101 % of control

Question: And the T/C [2]?
Answer: 82 % of control

Question: With `O=C(CCCN1CCC(C(O)c2ccc(F)cc2)CC1)c1ccc(F)cc1` (centres undefined) as the compound, how does the T/C (dose: 25.0 mg/kg/injection, schedule: Q04DX003 (ip), vehicle: saline with Tween-80) read?
Answer: 90 % of control

Question: What about the T/C (dose: 50.0 mg/kg/injection, schedule: Q04DX003 (ip), vehicle: saline with Tween-80) of the same compound?
Answer: 83 % of control

Question: What does the source list for `COc1cccc(Sc2ccc([N+](=O)[O-])c3no[n+]([O-])c23)c1`?
Answer: T/C (dose: 7.5 mg/kg/injection, schedule: Q04DX003 (ip), vehicle: saline with Tween-80): 69 % of control and 86 % of control; T/C (dose: 30.0 mg/kg/injection, schedule: Q04DX003 (ip), vehicle: saline with Tween-80): 124 % of control; T/C (dose: 480.0 mg/kg/injection, schedule: Q04DX003 (ip), vehicle: saline with Tween-80): 36 % of control and 41 % of control and 50 % of control

Question: Which T/C (dose: 300.0 mg/kg/injection, schedule: Q04DX003 (ip), vehicle: saline) does the source give for `NC(=O)SCC(N)C(=O)O` (centres undefined) here?
Answer: 88 % of control

Question: And the T/C (dose: 400.0 mg/kg/injection, schedule: Q04DX003 (sc), vehicle: saline)?
Answer: 49 % of control

Question: And the T/C (dose: 600.0 mg/kg/injection, schedule: Q04DX003 (ip), vehicle: saline)?
Answer: 80 % of control

Question: What about the T/C (dose: 600.0 mg/kg/injection, schedule: Q04DX003 (sc), vehicle: saline) of the same compound?
Answer: 37 % of control and 52 % of control

Question: And the T/C (dose: 750.0 mg/kg/injection, schedule: Q04DX003 (sc), vehicle: saline)?
Answer: 53 % of control

Question: What about the T/C (dose: 900.0 mg/kg/injection, schedule: Q04DX003 (sc), vehicle: saline) of the same compound?
Answer: 16 % of control and 38 % of control

Question: Which results are given for `CO[C@@]12[C@@H]3N[C@@H]3CN1C1=C(C(=O)C(N3CCCC3)=C(C)C1=O)[C@@H]2COC(N)=O`?
Answer: T/C (dose: 1.5 mg/kg/injection, schedule: Q04DX003 (ip), vehicle: saline with Tween-80): 6 % of control and 12 % of control; T/C (dose: 12.0 mg/kg/injection, schedule: Q04DX003 (ip), vehicle: saline with Tween-80): -98 % of control

Question: With `CC1OC2CC(O)C1(O)C1=C2C(O)=C(C(N)=O)C(=N)C1=O` (centres undefined) as the compound, how does the T/C (dose: 0.62 mg/kg/injection, schedule: Q04DX003 (ip), vehicle: saline) read?
Answer: 99 % of control

Question: And the T/C (dose: 1.25 mg/kg/injection, schedule: Q04DX003 (ip), vehicle: saline)?
Answer: 62 % of control

Question: And the T/C (dose: 2.5 mg/kg/injection, schedule: Q04DX003 (ip), vehicle: saline)?
Answer: 101 % of control
